Measurements: PMC7470115, “Design, synthesis and biological evaluation of novel tetrahydrothieno [2,3-c]pyridine substitued benzoyl thiourea derivatives as PAK1 inhibitors in triple negative breast cancer” (Journal of Enzyme Inhibition and Medicinal Chemistry, 2020)
Where two headings read alike, the source gives them in different places.

Assays:
MDA-MB-231 cells [1] = experiment: Cell cycle assay (PI staining, flow cytometry); format: cell-based; settings: 2.5, 5, 10 μM, 48 h
Description: For cell cycle detection, MDA-MB-231 cells were treated with 2.5, 5, 10 μM 7j for 48 h and then ethyl alcohol-fixed at 4 °C for 24 h. Then the cell cycle distribution were determined by flow cytometry analysis of PI staining.

PAK1 [2] = target: T1, PAK1 (Homo sapiens, UniProt Q13153); experiment: Cellular thermal shift assay (CETSA); format: cell-based; settings: 10 μM, 24 h; 48, 52, 56 °C
T1 sequence (Q13153 whole entry): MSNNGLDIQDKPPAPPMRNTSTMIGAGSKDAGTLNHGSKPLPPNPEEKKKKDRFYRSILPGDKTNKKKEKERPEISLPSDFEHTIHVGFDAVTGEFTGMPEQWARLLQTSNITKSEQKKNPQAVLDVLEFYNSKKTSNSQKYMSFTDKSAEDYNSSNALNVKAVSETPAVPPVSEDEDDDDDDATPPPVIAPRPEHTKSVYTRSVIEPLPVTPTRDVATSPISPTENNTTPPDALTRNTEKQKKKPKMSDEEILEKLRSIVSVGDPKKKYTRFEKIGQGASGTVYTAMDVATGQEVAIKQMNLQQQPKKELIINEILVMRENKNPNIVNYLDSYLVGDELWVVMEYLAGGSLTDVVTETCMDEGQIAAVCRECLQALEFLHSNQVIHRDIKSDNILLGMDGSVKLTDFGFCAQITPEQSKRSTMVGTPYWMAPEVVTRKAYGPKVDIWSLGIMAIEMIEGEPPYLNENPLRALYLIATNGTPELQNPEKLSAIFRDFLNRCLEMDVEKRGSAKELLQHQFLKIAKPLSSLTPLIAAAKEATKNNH
Description: The ability of 7j to interact with and stabilise PAK1 protein in intact cells, was analysed as described before. Briefly, cells cultured in 100 × 20 mm tissue culture dishes at 90% confluence were treated with media containing DMSO or 7j (10 μM) for 24 h. After that cells were detached with trypsin and re-suspended in PBS. The cell suspension was heated for 3 min to 48, 52, and 56 °C. Subsequently, cells were lysed using liquid nitrogen and two repeated cycles of freeze-thaw. Precipitated proteins were separated from the soluble fraction by centrifugation at 17,000 g for 20 min. Soluble proteins, collected in the supernatant, were kept at −80 °C until Western blot analysis.

PAK1 [3] = target: T1, PAK1; experiment: Western blot of PAK1 and p-PAK1 Ser199 in MDA-MB-231 cells; format: cell-based; settings: 48 h
Description: (§1) MDA-MB-231 were purchased from American Type Culture Collection (ATCC, Manassas, VA, USA). Cells were cultured in DMEM with 10% foetal bovine serum and incubated with 5% CO2. Antibodies used in this study were as follows: cdc25c (4688, CST), pcdc2^Tyr[15] (4539, CST), cyclinB1 (4135, CST), PAK1 (ab223849, CST), p-PAK1^Ser199 (ab192814, abcam), JNK (9252, CST), p-JNK (9255, CST), c-Jun (9165, CST), p-c-Jun (3270, CST), p-c-Raf^Ser259(9421, CST), p-MEK ^Ser217/221 (9154, CST), p-ERK ^Thr202/Tyr204 (9101, CST), β-actin (3700, CST). MTT (M2128) was purchased from Sigma- Aldrich (St. Louis, MO, USA).
(§2) Cells were treated with 7j for indicated times. Both adherent and floating cells were collected. Western blot analysis was carried out. Briefly, the cell pellets were resuspended with lysis buffer consisting of Hepes 50 mM pH 7.4, Triton-X-100 1%, sodium orthovanada 2 mM, sodium fluoride 100 mM, edetic acid 1 mM, PMSF 1 mM, aprotinin (Sigma, MO, USA) 10 mg/L and leupeptin (Sigma) 10 mg/L and lysed at 4 °C for 1 h. After 12,000 rpm centrifugation for 15 min, the protein content of supernatant was determined by the Bio- Rad DC protein assay (Bio-Rad Laboratories, Hercules, CA, USA). Equal amounts of the total protein were separated by 10–15% SDS-PAGE and transferred to PVDF membranes, the membranes were soaked in blocking buffer (5% skimmed milk or BSA). Proteins were detected using primary antibodies, followed by HRP-conjugated secondary antibody and visualised by using ECL as the HRP substrate. Quantification of immunoblot was performed by Quantity One 4.4.

cdc25c/cdc2 pathway = experiment: Immunofluorescence and western blot of cdc25c/cdc2 pathway in MDA-MB-231 cells; format: cell-based
Description: (§3) For immunofluorescence staining, non-specific antibody binding was blocked by incubating with PBS containing 1.5% goat serum. The MDA-MB-231 cells were sequentially incubated, starting with p-cdc2^Tyr[15] antibody (1:200), p-ERK1/2 ^Thr202/Tyr204 antibody (1:200) diluted in PBS containing 1% BSA incubated overnight at 4 °C, followed by addition of fluorescent-labelled secondary antibodies for 1 h at room temperature.
as §2
Cells were transfected with PAK1 (6361, CST) and negative control (6568, CST) siRNAs at 100 nM final concentration using Lipofectamine RNAiMAX/Lip3000 reagent (Invitrogen) according to the manufacturer’s instructions. The transfected cells were used for subsequent experiments 48 h later.

MAPK-JNK pathway = experiment: Western blot of MAPK-JNK pathway in MDA-MB-231 cells; format: cell-based; settings: 2.5, 5, 10 µM, 48 h western blot
Description: as §2

PAK1 [4] = target: T1, PAK1; experiment: PAK1 enzymatic assay (Kinase-Glo Plus / ADP-Glo luminescence); format: biochemical
Description: These assays were carried out as described previously. All of the enzymatic reactions were conducted at 30 °C for 40 min. The 50 µl reaction mixture contains 40 mM Tris, pH 7.4, 10 mM MgCl2, 0.1 mg/ml BSA, 1 mM DTT, 50 µM ATP, 0.2 μg/ml PAK1 and 100 uM lipid substrate. The compounds were diluted in 10% DMSO and 5 µl of the dilution was added to a 50 µl reaction so that the final concentration of DMSO is 1% in all of the reactions. The assay was performed using the Kinase-Glo Plus luminescence kinase assay kit and ADP-Glo Plus luminescence kinase assay kit. It measures kinase activity by quantitating the amount of ATP remaining in solution following a kinase reaction. The luminescent signal from the assay is correlated with the amount of ATP present and is inversely correlated with the amount of kinase activity. The IC50 values were calculated using nonlinear regression with normalised dose − response fit using Prism GraphPad software.

MDA-MB-231 cells [5] = experiment: Cell viability assay (MTT); format: cell-based; settings: MTT
Description: as §1
Cells were dispensed in 96-well plates at a density of 5 × 10^4 cells/ml. After 24 h or 48 h incubation, cells were treated with different concentrations of compounds for the indicated time periods. Cell viability was measured by the MTT assay.

MAPK-ERK pathway = experiment: Immunofluorescence and western blot of MAPK-ERK pathway in MDA-MB-231 cells; format: cell-based
Description: as §3, §2

MDA-MB-231 cells [6] = experiment: Colony formation assay; format: cell-based
[7] = 2.5, 5, 10 µM, 48 h western blot

In the case of `NC(=O)c1c(NC(=S)NC(=O)c2cccc(C(F)(F)F)c2)sc2c1CCN(C(=O)C1CC1)C2` [Compound 7j, 6-(cyclopropanecarbonyl)-2–(3-(3-(trifluoromethyl)benzoyl)thioureido)-4,5,6,7-tetrahydrothieno[2,3-c]pyridine-3-carboxamide], the Cell cycle arrest (MDA-MB-231 cells [1]) is reported as “induced obviously G2/M cell cycle arrest”, the “Thermal stabilisation of PAK1 (CETSA)” value (PAK1 [2]) is reported as “could stabilise PAK1” and the “Phosphorylation of PAK1 at Ser199” value (PAK1 [3]; 2.5, 5, 10 μM) is reported as “inhibited the phosphorylation of PAK1 at Ser199”. For the same molecule, the “PAK1 expression (western blot)” value (PAK1 [3]; larger dose 10 μM) was “suppressed PAK1 expression”, the “PAK1 expression (western blot)” value (PAK1 [3]; smaller dose 2.5 μM and 5 μM) was “did not affect PAK1 expression” and the “p-cdc2 Tyr15 expression” value (cdc25c/cdc2 pathway; 5 µM, 48 h immunofluorescence) was “obviously increased”. The “Expression of cdc25c, cyclinB1, Pin1 and NEDD8” value (cdc25c/cdc2 pathway; [7]) was “could decrease the expression”, the “Phosphorylation of p-cdc2 at Tyr15 after PAK1 knockdown” value (cdc25c/cdc2 pathway; si-PAK1, 5 μM, 48 h) was “almost did not affect” and the “JNK and c-Jun phosphorylation” value (MAPK-JNK pathway) was “decrease of JNK and c-Jun phosphorylation”. For the same molecule, the “Fold less PAK1 inhibitory activity in comparison to the standard FRAX597” value (PAK1 [4]; 7j versus FRAX597) was “over 10 fold”, the IC50 (PAK1 [4]; tested in triplicate, mean ± SD, 50 µM ATP, read-out: Kinase inhibitory activity (IC50, μM) PAK1) was 0.21 ± 0.05 µM and the IC50 (PAK1 [4]; value given in nM in the text, read-out: PAK1 IC50) was 0.209 µM. For the same molecule, the IC50 (MDA-MB-231 cells [5]; Homo sapiens, MDA-MB-231, 24 h, 24 h, read-out: MDA-MB-231 cell viability IC50, 24 h) was 7.37 µM, the IC50 (MDA-MB-231 cells [5]; Homo sapiens, MDA-MB-231, 48 h, 48 h, read-out: MDA-MB-231 cell proliferation IC50, 48 h) was 4.67 µM and the IC50 (MDA-MB-231 cells [5]; 48 h, read-out: MDA-MB-231 cell proliferation IC50, 48 h) was 4.67 µM. For the same molecule, the “p-ERK1/2 Thr202/Tyr204 expression and nucleus distribution” value (MAPK-ERK pathway; 5 µM, 48 h immunofluorescence) was “inhibited its expression and nucleus distribution”, the “Phosphorylation of p-c-Raf, p-MEK1/2 and p-ERK1/2” value (MAPK-ERK pathway; [7]) was “suppressed MAPK-ERK pathway” and the “Proliferation and colony formation ability of MDA-MB-231 cells” value (MDA-MB-231 cells [6]) was “obviously inhibited”.
